The term EC50 denotes the concentration needed to bring the measured effect to its halfway point. A lower EC50 goes with an effect from little substance. As usually defined, the Ki is the equilibrium dissociation constant of an inhibitor or competing ligand from its target. High values mean lower affinity, low ones higher affinity.

The structures appear in SMILES notation.

Series [1] has as its target T1, EP2 (Homo sapiens, UniProt P43116). The experiment in a line: EP2 flipr functional assay. It is filed as cell-based. An excerpt:
(§1) United States Patent Application Publication No. 20070129552, incorporated by reference herein, describes the methods used to obtain the in vitro data in the table below.

Series [2] addresses T2, EP4 (Homo sapiens, UniProt P35408). The experiment in a line: EP4 binding (KI).
Source text: as §1

The target of series [3] is T1, EP2. Description: EP2 binding (Ki).
Source text: as §1

The target in series [4] is T3, hEP3A (Homo sapiens, UniProt P43115).
T3 sequence (P43115 1-390): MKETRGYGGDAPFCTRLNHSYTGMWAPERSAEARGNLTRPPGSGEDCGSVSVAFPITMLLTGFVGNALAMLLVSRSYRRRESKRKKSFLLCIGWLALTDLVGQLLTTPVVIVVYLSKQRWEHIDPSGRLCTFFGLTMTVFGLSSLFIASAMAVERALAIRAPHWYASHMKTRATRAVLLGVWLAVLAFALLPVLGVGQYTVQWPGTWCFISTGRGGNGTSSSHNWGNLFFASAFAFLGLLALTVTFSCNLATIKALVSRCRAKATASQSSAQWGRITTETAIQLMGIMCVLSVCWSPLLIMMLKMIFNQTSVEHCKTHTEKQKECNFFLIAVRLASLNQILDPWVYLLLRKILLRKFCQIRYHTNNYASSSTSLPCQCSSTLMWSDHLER
Description: Other receptors functional assay, hEP3A. It is filed as cell-based.
Source text: as §1

Series [5] has as its target T4, hDP (Homo sapiens, UniProt Q13258).
T4 sequence (Q13258 1-359): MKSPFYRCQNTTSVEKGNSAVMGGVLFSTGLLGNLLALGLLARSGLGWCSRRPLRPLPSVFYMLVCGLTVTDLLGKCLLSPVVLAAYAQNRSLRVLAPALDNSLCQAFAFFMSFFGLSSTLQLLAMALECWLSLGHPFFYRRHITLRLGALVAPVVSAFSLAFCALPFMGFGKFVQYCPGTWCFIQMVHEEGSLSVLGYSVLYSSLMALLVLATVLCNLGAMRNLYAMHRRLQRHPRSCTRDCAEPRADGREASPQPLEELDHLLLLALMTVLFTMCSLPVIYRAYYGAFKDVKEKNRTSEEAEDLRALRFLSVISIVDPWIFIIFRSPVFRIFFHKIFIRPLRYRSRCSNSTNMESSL
The experiment in a line: Other receptors functional assay, hDP. It is filed as cell-based.
Source text: as §1

The target in series [6] is T2, EP4. The experiment in a line: EP4 flipr functional assay. It is filed as cell-based.
Source text: as §1

Series [7] has as its system normotensive dogs. Description: Intraocular pressure and ocular surface hyperemia in normotensive dogs. It is filed as in vivo. As to conditions: 0.003%, once daily for 5 days. As to the method: (§2) U.S. Pat. No. 7,091,231 describes the methods used to carry out the tests reported below.
(§3) Isopropyl 5-(3-(3-(4-(1-hydroxyhexyl)phenyl)-2,5-dioxoimidazolidin-4-yl)propyl)thiophene-2-carboxylate (31) was tested in normotensive dogs at 0.003%, dosing once daily for 5 days. The maximum intraocular pressure (IOP) decrease from baseline was 7.7 mmHg (45%) at 102 h; the maximum ocular surface hyperemia (OSH) score was 2.5 at 26 h. This compound was also tested in laser-induced hypertensive monkeys, using one single day dose. At 0.003%, the maximum IOP decrease from baseline was 23 mmHg (53%) at 24 h.
(§4) Isopropyl 5-(3-(3-(4-hexanoylphenyl)-2,5-dioxoimidazolidin-4-yl)propyl)thiophene-2-carboxylate (32) was tested in normotensive dogs at 0.003%, dosing once daily for 5 days. The maximum intraocular pressure (IOP) decrease from baseline was 8.9 mmHg (48%) at 54 h; the maximum ocular surface hyperemia (OSH) score was 2.3 at 54 h. This compound was also tested in laser-induced hypertensive monkeys, using one single day dose. At 0.003%, the maximum IOP decrease from baseline was 19 mmHg (49%) at 24 h.

The test system of series [8] is laser-induced hypertensive monkeys. The experiment in a line: Intraocular pressure in laser-induced hypertensive monkeys. To be noted: 0.003%, one single day dose, at 24 h. It is filed as in vivo. How it is done:
as §2, §3, §4

T2 sequence (P35408 whole entry): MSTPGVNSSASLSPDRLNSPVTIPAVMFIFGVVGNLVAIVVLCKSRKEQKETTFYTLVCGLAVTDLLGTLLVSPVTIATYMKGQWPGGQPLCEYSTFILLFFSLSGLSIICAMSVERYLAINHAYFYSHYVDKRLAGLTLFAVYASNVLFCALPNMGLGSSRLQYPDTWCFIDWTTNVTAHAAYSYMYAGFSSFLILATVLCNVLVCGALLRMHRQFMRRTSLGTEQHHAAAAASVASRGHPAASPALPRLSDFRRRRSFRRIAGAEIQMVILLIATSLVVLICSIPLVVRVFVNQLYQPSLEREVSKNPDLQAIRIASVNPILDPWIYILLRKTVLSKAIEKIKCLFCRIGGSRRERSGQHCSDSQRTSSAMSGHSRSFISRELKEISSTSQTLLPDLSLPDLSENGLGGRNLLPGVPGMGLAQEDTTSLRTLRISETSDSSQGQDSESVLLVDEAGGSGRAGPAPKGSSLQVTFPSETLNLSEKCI
T1 sequence (P43116 whole entry): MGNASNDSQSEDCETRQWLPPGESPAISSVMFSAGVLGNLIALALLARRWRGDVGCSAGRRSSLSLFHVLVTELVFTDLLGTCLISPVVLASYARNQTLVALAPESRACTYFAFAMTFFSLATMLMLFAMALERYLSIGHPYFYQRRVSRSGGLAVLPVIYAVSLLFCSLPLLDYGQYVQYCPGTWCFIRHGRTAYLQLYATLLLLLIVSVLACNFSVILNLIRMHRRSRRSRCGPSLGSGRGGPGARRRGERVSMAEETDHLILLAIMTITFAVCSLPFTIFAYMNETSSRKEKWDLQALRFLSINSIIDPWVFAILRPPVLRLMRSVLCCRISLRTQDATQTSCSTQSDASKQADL

Turning to `CCCCC[C@@H](O)c1ccc(N2C(=O)NC(=O)[C@@H]2CCCc2ccc(C(=O)O)s2)cc1` [Example 10, 5-(3-((S)-3-(4-((R)-1-hydroxyhexyl)phenyl)-2,5-dioxoimidazolidin-4-yl)propyl)thiophene-2-carboxylic acid], the concentration for a half-maximal effect (EC50) was 1 nM in series [1], 15 nM in series [4], 19300 nM in series [5] and 2000 nM in series [6]. Besides, the Ki in series [2] was 7210 nM; in series [3], 1 nM.

Take `CCCCC[C@H](O)c1ccc(N2C(=O)NC(=O)[C@H]2CCCc2ccc(C(=O)O)s2)cc1` [Example 8, 5-(3-((R)-3-(4-((S)-1-hydroxyhexyl)phenyl)-2,5-dioxoimidazolidin-4-yl)propyl)thiophene-2-carboxylic acid]: the EC50 was 23 nM in series [1], 29 nM in series [4] and more than 10000 nM in series [5]. Further, the values for the Ki in series [2] and in series [3] were 7190 nM and 4 nM, respectively.

Regarding `CCCCC[C@H](O)c1ccc(N2C(=O)NC(=O)[C@@H]2CCCc2ccc(C(=O)O)s2)cc1` [Example 7, 5-(3-((S)-3-(4-((S)-1-hydroxyhexyl)phenyl)-2,5-dioxoimidazolidin-4-yl)propyl)thiophene-2-carboxylic acid], the 50% effective concentration (EC50) in series [1] was 4 nM; in series [4], 5 nM; in series [5] it was more than 10000 nM. Also, the Ki in series [2] stood at 5070 nM; in series [3], 2 nM.

`CCCCCC(O)c1ccc(N2C(=O)NC(=O)C2CCCc2ccc(C(=O)OC(C)C)s2)cc1` (stereo not shown) [Example 31, Isopropyl 5-(3-(3-(4-(1-hydroxyhexyl)phenyl)-2,5-dioxoimidazolidin-4-yl)propyl)thiophene-2-carboxylate]: the “maximum ocular surface hyperemia (OSH) score” value in series [7] (at 26 h) amounted to 2.5. Also, in series [7] (at 102 h), the “maximum intraocular pressure (IOP) decrease from baseline” value was 7.7 mmHg and the “maximum intraocular pressure (IOP) decrease from baseline (percent)” value came out at 45%. In series [8], the “maximum IOP decrease from baseline” value is given as 23 mmHg and the “maximum IOP decrease from baseline (percent)” value is reported as 53%.

Turning to `CCCCCC(=O)c1ccc(N2C(=O)NC(=O)C2CCCc2ccc(C(=O)OC(C)C)s2)cc1` (stereo not shown) [Example 32, Isopropyl 5-(3-(3-(4-hexanoylphenyl)-2,5-dioxoimidazolidin-4-yl)propyl)thiophene-2-carboxylate], in series [7] (at 54 h), the “maximum intraocular pressure (IOP) decrease from baseline” value amounted to 8.9 mmHg, the “maximum intraocular pressure (IOP) decrease from baseline (percent)” value was 48% and the “maximum ocular surface hyperemia (OSH) score” value is recorded as 2.3. In series [8], the “maximum IOP decrease from baseline” value was found to be 19 mmHg and the “maximum IOP decrease from baseline (percent)” value was 49%.

For `CCCCCC(=O)c1ccc(N2C(=O)NC(=O)C2CCCc2ccc(C(=O)O)s2)cc1` (stereo not shown) [Example 1, 5-(3-(3-(4-hexanoylphenyl)-2,5-dioxoimidazolidin-4-yl)propyl)thiophene-2-carboxylic acid], the EC50 in series [1] amounted to 17 nM; in series [4], 131 nM; in series [5] it was 8810 nM; in series [6] it was 17500 nM. In addition, the Ki in series [2] was 3240 nM; in series [3], 4.5 nM.

Regarding `CCCCC[C@H](O)c1ccc(N2C(=O)NC(=O)C2CCCc2ccc(C(=O)O)s2)cc1` (stereo in doubt) [Example 2, 5-(3-(3-(4-(1-hydroxyhexyl)phenyl)-2,5-dioxoimidazolidin-4-yl)propyl)thiophene-2-carboxylic acid], the EC50 turned out to be 3.5 nM in series [1], 10 nM in series [4] and 17400 nM in series [5]. Moreover, the Ki in series [2] is more than 10000 nM; in series [3], 5 nM.

The values are drawn from patent US20090062361A1, “THERAPEUTIC HYDANTOINS” (ALLERGAN, INC., priority 2007, published 2009).
